Measured values taken from patent US20120035196A1, “CARBOXYLIC ACID COMPOUND” (priority 2009, published 2012).

Experiments:
[1] = molecular target: T1, human GPR40 (Homo sapiens, UniProt O14842, R211H); assay: Measurement of GPR40 agonistic activity (FLIPR, change in intracellular calcium concentration); assay type: cell-based; details: CHO cell strain expressing human GPR40; changes in fluorescence intensity after 1 minute
T1 construct: expressed in transfected cells
Text: Test Method 1: Measurement of GPR40 Agonistic Activity i) Cloning of Human GPR40
A full-length sequence of GPR40 was obtained by PCR method using human genomic DNA (Clontech) as a template in accordance with the procedure shown below.
An oligonucleotide consisting of the base sequence represented by SEQ ID NO: 1 was used as the forward primer, and an oligonucleotide consisting of the base sequence represented by SEQ ID NO: 2 as the reverse primer. In this connection, a base sequence comprising a XbaI recognition region was added to the respective 5′-termini of the aforementioned forward primer and reverse primer. PCR was carried out in the presence of 5% dimethylsulfoxide (DMSO) using a Taq DNA polymerase (Ex Taq DNA polymerase; Takara Bio), by repeating 30 times of a cycle consisting of 94° C. (15 seconds)/55° C. (30 seconds)/72° C. (1 minute). As a result, a DNA fragment of about 0.9 kbp was amplified. This DNA fragment was digested with XbaI and then inserted into the XbaI site of a plasmid pEF-BOS-dhfr (Nucleic acids Research, 18, 5322, 1990), thereby obtaining a plasmid pEF-BOS-dhfr-GPR40.
The base sequence of the GPR40 gene in the pEF-BOS-dhfr-GPR40 was determined by the dideoxy terminator method using a DNA sequencer (ABI 377 DNA Sequencer, Applied Biosystems). The base sequence of the GPR40 gene was represented by the base sequence SEQ ID NO: 3. […]
ii) Preparation of GPR40 Stable Expression Cell
As the cell for expressing GPR40 protein, a CHO dhfr cell (a dihydrofolate reductase (dhfr) gene-deficient CHO cell) was used. Also, as the plasmid for expressing GPR40 protein, the plasmid pEF-BOS-dhfr-GPR40 obtained in the aforementioned i) was used. The CHO dhfr cell was inoculated into an αMEM medium containing 10% fetal calf serum (FCS) using a 6 well plate (Asahi Techno Glass) and cultured overnight to a confluence of 80 to 90%, and then 2 μg per well of the plasmid pEF-BOS-dhfr-GPR40 was gene-transferred using a transfection reagent (Lipofectamine 2000; Invitrogen). After 24 hours of culturing from the gene transfer, the cells were diluted and inoculated again. […] After 20 days of culturing, the formed colonies of cells were individually recovered and cultured to obtain CHO cells stably expressing GPR40. From these, cells having high reactivity for intrinsic ligands oleic acid and linoleic acid were selected. […]
iii) Measurement of GPR40 Agonistic Activity
The present test was measured by FLIPR (registered trademark, Molecular Devices) using a change in intracellular calcium concentration as the index. Hereinafter, the test method will be shown.
A CHO cell strain in which human GPR40 was expressed was inoculated into a 384 well black plate (Becton Dickinson) at 6×10^3 cells per well portion and cultured overnight in a CO2 incubator.
Using a Calcium-3 assay kit (Molecular Devices), one bottle of the phosphorescent pigment was dissolved in 10 ml of HBSS-HBEPES buffer (pH 7.4, 1×HBSS, 20 mM HEPES, Invitrogen). 35.68 mg of Probenecid (Sigma) was dissolved in 250 μl of 1 M NaOH and adjusted by adding 250 μl of the HBSS-HEPES buffer. A phosphorescent pigment solution was prepared by mixing 16 ml of HBSS-HEPES buffer, 640 μl of the phosphorescent pigment and 32 μl of probenecid per one plate. The medium was discarded from the plate, and the phosphorescent pigment solution was dispensed at 40 μl per well portion and then incubated at room temperature for 2 hours. Each compound to be tested was dissolved in DMSO and then diluted with HBSS-HEPES buffer and dispensed in 10 μl portions into the plate, thereby starting the reaction, and changes in the intracellular calcium concentration were measured by FLIPR. The EC50 value of each compound to be tested was calculated by a dose-response curve of changes in fluorescence intensity after 1 minute of the measurement.

[2] = test system: Male ICR mice; assay: Normal mice single oral glucose tolerance test; assay type: in vivo; details: Mus musculus, 0.5 h, orally 10 mg/kg 30 minutes before glucose loading (2 g/kg), 30 minutes after glucose loading, relative to control group, read-out: Blood glucose increase inhibition rate
Description: Test Method 3: Normal Mice Single Oral Glucose Tolerance Test
The present test was to examine the blood glucose increase inhibiting action of the test compound after glucose loading, using normal mice. Hereinafter, the test method will be shown.
Male ICR mice (6 weeks of age) after 1 week of acclimatization were subjected to overnight fasting and used as test animals. The test compound was made into a 0.01 M aqueous sodium hydroxide solution and orally administered at a dose of 10 mg/kg 30 minutes before the glucose loading (2 g/kg). A 0.01 M aqueous sodium hydroxide solution was administered to the control group. The blood glucose increase inhibitory ratio (%) after 30 minutes of glucose loading was calculated, relative to the control group.
When the compound of Example 72 described in Pamphlet of International Publication WO2005/087710 was orally administered at 10 mg/kg by the same method as the test method 3 above, the blood glucose increase inhibition rate was measured and found to be 9%, whereas when the compound was orally administered at 30 mg/kg, the blood glucose increase inhibition rate was 20%. […] Further, in the present test, a minimum administration amount showing a blood glucose increase inhibition rate of 20% or more or a minimum administration amount showing a significance (Dunnet multiple comparison test) relative to a control was taken as a minimum effective dose (MED).

T1 sequence (O14842 whole entry R211H): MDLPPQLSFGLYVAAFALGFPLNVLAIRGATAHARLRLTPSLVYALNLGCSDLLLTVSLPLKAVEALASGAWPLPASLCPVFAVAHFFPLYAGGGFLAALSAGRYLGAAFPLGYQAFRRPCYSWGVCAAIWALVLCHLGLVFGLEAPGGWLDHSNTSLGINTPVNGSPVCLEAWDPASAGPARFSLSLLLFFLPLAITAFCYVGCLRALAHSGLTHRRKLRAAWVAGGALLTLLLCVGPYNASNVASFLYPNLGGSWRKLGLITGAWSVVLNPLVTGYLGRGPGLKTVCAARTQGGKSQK

Row | Compound | EC50 [1] [nM] | inhibition in vivo at 10 mg/kg [2] [%]
1 | Cc1cc(OCCC(C)(C)O)cc(C)c1-c1cccc(CNc2ccc3c(c2)CC2(CC2)C3CC(=O)O)c1C (stereo not drawn) [Example 2-2] | 790 | 34
2 | Cc1cccc(C)c1-c1cccc(COc2ccc3c(c2)-c2ccccc2C3CC(=O)O)c1C (stereo not drawn) [Example 6, 0.5 calcium {3-[(2,2′,6′-trimethylbiphenyl-3-yl)methoxy]-9H-fluoren-9-yl}acetate] | 780 | 35
3 | Cc1cc(OC[C@H](O)CO)cc(C)c1-c1cccc(COc2ccc3c(c2)-c2ccccc2C3CC(=O)O)c1C (stereo partly drawn) [Example 8, sodium {3-[(4′-{[(2R)-2,3-dihydroxypropyl]oxy}-2,2′,6′-trimethylbiphenyl-3-yl)methoxy]-9H-fluoren-9-yl}acetate] | 610 | 25
4 | COCCOc1cc(C)c(-c2cccc(CNc3ccc4c(c3)CC3(CC3)C4CC(=O)O)c2C)c(C)c1 (stereo not drawn) [Example 8-3] | 610 | 21
5 | Cc1nc(OCCC(C)(C)O)nc(C)c1-c1cccc(COc2ccc3c(c2)CC2(CC2)C3CC(=O)O)c1C (stereo not drawn) [Example 8-12] | 590 | 24
6 | Cc1cc(OCCC(C)(C)O)cc(C)c1-c1cccc(COc2ccc3c(c2)OC2(CC2)C3CC(=O)O)c1C (stereo not drawn) [Example 21, sodium (6-{[4′-(3-hydroxy-3-methylbutoxy)-2,2′,6′-trimethylbiphenyl-3-yl]methoxy}-3H-spiro[1-benzofuran-2,1′-cyclopropan]-3-yl)acetate] | 810 | 43
7 | COCCOc1cc(C)c(-c2cccc(COc3ccc4c(c3)OC3(CC3)C4CC(=O)O)c2C)c(C)c1 (stereo not drawn) [Example 21-1] | 750 | 30
8 | CCOCCOc1cc(C)c(-c2cccc(COc3ccc4c(c3)OC3(CC3)C4CC(=O)O)c2C)c(C)c1 (stereo not drawn) [Example 21-2] | 810 | 23
9 | COCCCOc1cc(C)c(-c2cccc(COc3ccc4c(c3)OC3(CC3)C4CC(=O)O)c2C)c(C)c1 (stereo not drawn) [Example 21-3] | 710 | 32
10 | Cc1nc(OCCO)nc(C)c1-c1cccc(COc2ccc3c(c2)CC2(CC2)C3CC(=O)O)c1C (stereo not drawn) [Example 23, [5′-({3-[2-(2-hydroxyethoxy)-4,6-dimethylpyrimidin-5-yl]-2-methylbenzyl}oxy)-1′,3′-dihydrospiro[cyclopropan-1,2′-inden]-1′-yl]acetic acid] | 520 | 20
11 | Cc1cc(OCCO)cc(C)c1-c1cccc(COc2ccc3c(c2)OC2(CC2)C3CC(=O)O)c1C (stereo not drawn) [Example 25-3a] | 560 | 

Further lines, with some results ahead:

Row | EC50 [1] [nM] | Compound | inhibition in vivo at 10 mg/kg [2] [%]
12 | 350 | Cc1cc(OC[C@@H](O)CO)cc(C)c1-c1cccc(COc2ccc3c(c2)OC2(CC2)C3CC(=O)O)c1C (single isomer, unassigned) [Example 25-5a] | 
13 | 260 | Cc1cc(OC[C@@H](O)CO)cc(C)c1-c1cccc(COc2ccc3c(c2)OC2(CC2)C3CC(=O)O)c1C (single isomer, unassigned) [Example 25-5b] | 
14 | 490 | Cc1cc(OCC[C@H](O)CO)cc(C)c1-c1cccc(COc2ccc3c(c2)OC2(CC2)C3CC(=O)O)c1C (single isomer, unassigned) [Example 25-7a] | 
15 | 330 | Cc1cc(OCC[C@H](O)CO)cc(C)c1-c1cccc(COc2ccc3c(c2)OC2(CC2)C3CC(=O)O)c1C (single isomer, unassigned) [Example 25-7b] | 
16 | 210 | Cc1cc(OCCO)cc(C)c1-c1cccc(CNc2ccc3c(c2)CC2(CC2)C3CC(=O)O)c1C (single isomer, unassigned) [Example 25b, [5′-({[4′-(2-hydroxyethoxy)-2,2′,6′-trimethylbiphenyl-3-yl]methyl}amino)-1′,3′-dihydrospiro[cyclopropan-1,2′-inden]-1′-yl]acetic acid] | 33
17 | 520 | Cc1cc(OCCO)cc(C)c1-c1cccc(COc2ccc3c(c2)-c2ccccc2C3CC(=O)O)c1C (stereo not drawn) [Example 2, sodium (3-{[4′-(2-hydroxyethoxy)-2,2′,6′-trimethylbiphenyl-3-yl]methoxy}-9H-fluoren-9-yl)acetate] | 37
18 | 250 | Cc1cc(OC[C@H](O)CO)cc(C)c1-c1cccc(COc2ccc3c(c2)CC2(CC2)C3CC(=O)O)c1C (stereo partly drawn) [Example 4, sodium {5′-[(4′-{[(2R)-2,3-dihydroxypropyl]oxy}-2,2′,6′-trimethylbiphenyl-3-yl)methoxy]-1′,3′-dihydrospiro[cyclopropan-1,2′-inden]-1′-yl}acetate] | 20
19 | 490 | Cc1cc(OCCO)cc(C)c1-c1cccc(COc2ccc3c(c2)OC2(CC2)C3CC(=O)O)c1C (stereo not drawn) [Example 20, sodium (6-{[4′-(2-hydroxyethoxy)-2,2′,6′-trimethylbiphenyl-3-yl]methoxy}-3H-spiro[1-benzofuran-2,1′-cyclopropan]-3-yl)acetate] | 40
20 | 250 | Cc1cc(OC[C@H](O)CO)cc(C)c1-c1cccc(COc2ccc3c(c2)OC2(CC2)C3CC(=O)O)c1C (stereo partly drawn) [Example 22, sodium {6-[(4′-{[(2R)-2,3-dihydroxypropyl]oxy}-2,2′,6′-trimethylbiphenyl-3-yl)methoxy]-3H-spiro[1-benzofuran-2,1′-cyclopropan]-3-yl}acetate] | 34
21 | 270 | Cc1cc(OC[C@@H](O)CO)cc(C)c1-c1cccc(COc2ccc3c(c2)OC2(CC2)C3CC(=O)O)c1C (stereo partly drawn) [Example 22-1] | 35
22 | 430 | Cc1cc(OCC[C@@H](O)CO)cc(C)c1-c1cccc(COc2ccc3c(c2)OC2(CC2)C3CC(=O)O)c1C (stereo partly drawn) [Example 22-2] | 34
23 | 470 | Cc1cc(OCC[C@H](O)CO)cc(C)c1-c1cccc(COc2ccc3c(c2)OC2(CC2)C3CC(=O)O)c1C (stereo partly drawn) [Example 22-3] | 38
24 | 190 | Cc1cc(OCCO)cc(C)c1-c1cccc(COc2ccc3c(c2)OC2(CC2)C3CC(=O)O)c1C (stereo not drawn) [Example 25-3b] | 
